Measurements published in patent US20090111786A1, “Compounds that Prevent Macrophage Apoptosis and Uses Thereof” (priority 2004, published 2009).

Assays:
[1] = tested on: LPS-dependent gene expression in macrophages; assay: Microarray analysis of LPS (TLR4)-induced apoptotic gene program; conditions: 9cRA alone
Method: Microarray analysis: In one embodiment, large numbers of genes were assayed for relative expression levels using one or more of an Affymetrix U74A array and a Codelink Uniset 1 mouse array. Total RNA was isolated and purified using Trizol reagent (Invitrogen Life Technologies, Carlsbad, Calif.) and RNeasy columns (Qiagen, Valencia, Calif.). cRNA was generated from 10 μg total RNA using Superscript (Invitrogen) and the High Yield RNA transcription labeling kit (Enzo Biochem. Inc., Farmingdale, N.Y.). Duplicate samples of fragmented cRNA were hybridized to Affymetrix U74A arrays or Codelink Uniset 1 mouse arrays according to manufacture's instruction. Data was analyzed with Microarray Suite (Affymetrix, Santa Clara, Calif.) and Genespring software (Silicongenetics, Redwood City, Calif.).
An additional series of microarray experiments was performed to evaluate the influence of LXR activation on regulation of the apoptotic program induced by engagement of TLR4 (FIG. 4). Macrophages were incubated with GW3965 or vehicle for 16 h and then treated with LPS for 6 hours.
Macrophages were incubated with the LXR agonist GW3965 (1 μM) or vehicle for 16 h prior to treatment with LPS (100 ng/ml) for 6 h. Total RNA was subjected to microarray analysis using Codelink Mouse Uniset 1 microarrays.

[2] = tested on: bone marrow-derived macrophages (BMDMs); assay: Macrophage apoptosis on M-CSF withdrawal, sub-G1 DNA content by flow cytometry (PI); assay type: cell-based, mouse; conditions: for increase in cells with sub-G1 DNA content (apoptosis-induced DNA fragmentation): BMDMs pre-incubated with agonist, then cultured without M-CSF
[3] = tested on: macrophages; assay: Cycloheximide-induced general caspase activity, fluorimetric; assay type: cell-based, mouse; conditions: macrophages treated with CHX 10 μg/ml, 5 h
[4] = tested on: WT and LXR−/− macrophages; assay: Cycloheximide-induced macrophage apoptosis, DNA fragmentation; assay type: cell-based, mouse; conditions: for apoptotic process induced by CHX (DNA fragmentation): preincubation 24 h
[5] = tested on: AIM (Apoptosis Inhibitor expressed by Macrophages) mRNA; assay: AIM mRNA expression by Northern blotting; conditions: differentiated macrophages; T1317: at 12 to 24 h of stimulation; EC 10 μM

SMILES | increase in cells with sub-G1 DNA content (apoptosis-induced DNA fragmentation) [2] | AIM mRNA levels [5] | also measured
CC1=C(/C=C/C(C)=C\C=C\C(C)=C\C(=O)O)C(C)(C)CCC1 [9cRA, 9-cis retinoic acid] | little effect | – | inhibitory activity on LPS-dependent gene expression [1]: very little inhibitory activity; effect on the action of the LXR-specific agonists on sub-G1 content ([2]; 9cRA combined with T1317, GW3965 or EC, M-CSF withdrawal): markedly enhanced
C[C@@H]1C[C@@H]([C@H](O)CC2CC(=O)NC(=O)C2)C(=O)[C@@H](C)C1 [CHX, cycloheximide] | – | – | caspase activation [3]: increased; DNA fragmentation ([4]; macrophages treated with CHX 10 μg/ml, 6 h): increased
C[C@H](CC[C@@H]1OC1(C)C)[C@H]1CC[C@H]2[C@@H]3CC=C4C[C@@H](O)CC[C@]4(C)[C@H]3CC[C@]12C [EC, 24(S),25-epoxycholesterol] | attenuated | induced | –
O=C(O)Cc1cccc(OCCCN(Cc2cccc(C(F)(F)F)c2Cl)CC(c2ccccc2)c2ccccc2)c1 [GW3965] | attenuated | – | –
O=S(=O)(c1ccccc1)N(CC(F)(F)F)c1ccc(C(O)(C(F)(F)F)C(F)(F)F)cc1 [T1317] | attenuated | highly induced | apoptotic process induced by CHX (DNA fragmentation) ([4]; LXR-deficient macrophages): not; apoptotic process induced by CHX (DNA fragmentation) ([4]; […]): attenuated
